According to publication PMC5537056 (Leukemia, 2016):

How the values were obtained:
Format in all cases: cell-based
MM1.S = experiment: Viability assay by flow cytometry
U266 = experiment: Viability assay by flow cytometry
PIM2 expression in MM1.S = experiment: Western blot of PIM2 protein expression; settings: IL-6 25 ng/ml
PIM2 expression in U266 = experiment: Western blot of PIM2 protein expression; settings: U266, IL-6 25 ng/ml
RPMI8226 = experiment: Viability assay by flow cytometry; settings: read-out: LC50 (Viability); RPMI8226, 48 hrs
KMS11 = experiment: Viability assay by flow cytometry; settings: read-out: LC50 (Viability); KMS11, 48 hrs
[1] = tested on: MM cell lines (RPMI8226, U266, MM1.S, KMS11); experiment: Proliferation assays, range over the four MM cell lines; settings: read-out: GI50, range over MM cell lines
[2] = tested on: MM cell lines (RPMI8226, U266, MM1.S, KMS11); experiment: Viability assays, range over the four MM cell lines; settings: read-out: LC50, range over MM cell lines
[3] = Homo sapiens, MM1.S, 48 h, read-out: cell viability

Question: For C[C@@H]1C[C@H]2[C@@H]3CCC4=CC(=O)C=C[C@]4(C)[C@@]3(F)[C@@H](O)C[C@]2(C)[C@@]1(O)C(=O)CO [dexamethasone], which viability at 5 µM (MM1.S; [3]) is on record?
Answer: The viability at 5 µM was 55%.

Question: For N[C@@H](Cc1ccc(N(CCCl)CCCl)cc1)C(=O)O [melphalan], which viability at 4 µM (U266; Homo sapiens, U-266, read-out: cell viability) is on record?
Answer: Its viability at 4 µM is 58%.

Question: And the viability at 2 µM (MM1.S; [3])?
Answer: Its viability at 2 µM is 36%.

Question: Which results are given for “rIL-6: Recombinant IL-6 purchased from R&D Systems”?
Answer: upregulation of PIM2 (PIM2 expression in MM1.S): 3.2 fold; upregulation of PIM2 (PIM2 expression in U266): 1.3 fold

Question: For CC(C)C[C@H](NC(=O)[C@H](Cc1ccccc1)NC(=O)c1cnccn1)B(O)O [bortezomib], which viability at 0.0015 µM (MM1.S; [3]) is on record?
Answer: The viability at 0.0015 µM was 18%.

Question: How did the CC50 (RPMI8226) turn out when N[C@@H]1CCCN(c2c(/C=C3\SC(=O)NC3=O)cccc2-c2ccccc2)C1 [AZD1208] was run?
Answer: The CC50 was 30 µM.

Question: And the CC50 (U266; read-out: LC50 (Viability), U266, 48 hrs)?
Answer: The CC50 was 56.6 µM.

Question: And the CC50 (MM1.S; read-out: LC50 (Viability), MM1S, 48 hrs)?
Answer: The CC50 was 23.7 µM.

Question: What about the CC50 (KMS11) of the same molecule?
Answer: Its CC50 is 31.3 µM.

Question: And the GI50 [1]?
Answer: The GI50 was 0.7 to 4.7 µM.

Question: And the CC50 [2]?
Answer: The CC50 was 23 to 56 µM.
